Patent US11414432B2, “Condensed bicyclic heterocyclic derivatives as pest control agents” (Bayer Aktiengesellschaft, priority 2018, dated 2022)

How the values were obtained:
[1] = log P by HPLC on reversed-phase column (C18), acidic range; assay type: physicochemical; conditions: formic acid in water/acetonitrile, LC-UV
Experimental: The log P values were determined according to EEC Directive 79/831 Annex V.A8 by HPLC (high-performance liquid chromatography) on a reversed-phase column (C18) using the following methods: ^[a] […] Calibration was carried out using a homologous series of straight-chain alkan-2-ones (having 3 to 16 carbon atoms) with known log P values. The values between successive alkanones are determined by linear regression.

Ctenocephalides felis = Ctenocephalides felis oral test; assay type: in vivo; conditions: adult cat fleas, oral via citrated cattle blood, 100 ppm, after 2 days
Experimental: Ctenocephalides felis—Oral Test
Solvent: dimethyl sulfoxide
To produce a suitable active compound formulation, 10 mg of active compound are mixed with 0.5 ml of dimethyl sulfoxide. Dilution with citrated cattle blood gives the desired concentration.
About 20 unfed adult cat fleas (Ctenocephalides felis) are placed into a chamber which is closed at the top and bottom with gauze. A metal cylinder whose bottom end is closed with parafilm is placed onto the chamber. The cylinder contains the blood/active compound formulation, which can be imbibed by the fleas through the parafilm membrane.
After 2 days, the kill in % is determined. 100% means that all of the fleas have been killed; 0% means that none of the fleas have been killed.

Meloidogyne incognita = Meloidogyne incognita test; assay type: in vivo; conditions: lettuce in sand, egg/larvae suspension, 20 ppm, after 14 days
Experimental: Meloidogyne incognita Test Solvent: 125.0 parts by weight of acetone To produce a suitable active compound formulation, 1 part by weight of active compound is mixed with the stated amount of solvent and the concentrate is diluted to the desired concentration with water. Vessels are filled with sand, active compound solution, an egg/larvae suspension of the southern root-knot nematode (Meloidogyne incognita) and lettuce seeds. The lettuce seeds germinate and the plants develop. The galls develop on the roots. After 14 days, the nematicidal efficacy in % is determined by the formation of galls. 100% means that no galls were found; 0% means that the number of galls on the treated plants corresponds to the untreated control.

Myzus persicae [2] = assay: Myzus persicae oral test; assay type: in vivo; conditions: mixed population, oral through parafilm, 4 ppm, after 5 days
Experimental: Myzus persicae—Oral Test Solvent: 100 parts by weight of acetone To produce a suitable preparation of active compound, 1 part by weight of active compound is dissolved using the specified parts by weight of solvent and made up with water until the desired concentration is attained. 50 μl of the active compound preparation are transferred into microtitre plates and made up to a final volume of 200 μl with 150 μl of IPL41 insect medium (33%+15% sugar). Subsequently, the plates are sealed with parafilm, which a mixed population of green peach aphids (Myzus persicae) within a second microtitre plate is able to puncture and imbibe the solution through. After 5 days, the efficacy in % is determined. 100% means that all the aphids have been killed; 0% means that no aphids have been killed.

Spodoptera frugiperda = Spodoptera frugiperda spray test; assay type: in vivo; conditions: caterpillars on maize leaf discs, 100 g/ha, after 7 days
Experimental: Spodoptera frugiperda—Spray Test Solvent: 78.0 parts by weight of acetone • • 1.5 parts by weight of dimethylformamide Emulsifier: alkylaryl polyglycol ether To produce a suitable active compound preparation, 1 part by weight of active compound is dissolved using the stated parts by weight of solvent and made up with water containing an emulsifier concentration of 1000 ppm until the desired concentration is attained. To produce further test concentrations, the formulation is diluted with emulsifier-containing water. Leaf discs of maize (Zea mays) are sprayed with an active compound formulation of the desired concentration and, after drying, populated with caterpillars of the fall armyworm (Spodoptera frugiperda). After 7 days, the efficacy in % is determined. 100% means that all the caterpillars have been killed; 0% means that no caterpillar has been killed.

Myzus persicae [3] = assay: Myzus persicae spray test; assay type: in vivo; conditions: Chinese cabbage leaf discs, all stages, 100 g/ha, after 5 days
Experimental: Myzus persicae—Spray Test Solvent: 78 parts by weight of acetone • • 1.5 parts by weight of dimethylformamide Emulsifier: alkylaryl polyglycol ether To produce a suitable active compound preparation, 1 part by weight of active compound is dissolved using the stated parts by weight of solvent and made up with water containing an emulsifier concentration of 1000 ppm until the desired concentration is attained. To produce further test concentrations, the formulation is diluted with emulsifier-containing water. Discs of Chinese cabbage leaves (Brassica pekinensis) infested by all stages of the green peach aphid (Myzus persicae) are sprayed with an active compound formulation of the desired concentration. After 5 days, the efficacy in % is determined. 100% means that all the aphids have been killed; 0% means that no aphids have been killed.

Diabrotica balteata = Diabrotica balteata spray test; assay type: in vivo; conditions: beetle larvae on germinated wheat grains, 160 μg/cavity, after 7 days
Experimental: Diabrotica balteata—Spray Test Solvent: 78 parts by weight of acetone • • 1.5 parts by weight of dimethylformamide Emulsifier: alkylaryl polyglycol ether To produce a suitable active compound preparation, 1 part by weight of active compound is dissolved using the stated parts by weight of solvent and made up with water containing an emulsifier concentration of 1000 ppm until the desired concentration is attained. To produce further test concentrations, the formulation is diluted with emulsifier-containing water. Pre-swollen wheat grains (Triticum aestivum) are incubated in a multiwell plate filled with agar and a little water for one day (5 seed grains per cavity). The germinated wheat grains are sprayed with an active compound preparation of the desired concentration. Subsequently, each cavity is infected with 10-20 beetle larvae of Diabrotica balteata. After 7 days, the efficacy in % is determined. 100% means that all wheat plants have grown as in the untreated, uninfected control; 0% means that no wheat plant has grown.

| SMILES | chromatographic logP [1] | efficacy (Myzus persicae [2]) [%] | efficacy (Spodoptera frugiperda) [%] | further results |
| --- | --- | --- | --- | --- |
| Cn1c(C(F)(F)F)cc2nc(-c3nn4cc(C5(C#N)CC5)ccc4c3Br)n(C)c2c1=O | 3.37 |  |  |  |
| N#CC1(c2ccc3c(Br)c(C(=O)O)nn3c2)CC1 [3-Bromo-6-(1-cyanocyclopropyl)pyrazolo[1,5-a]pyridine-2-carboxylic Acid] | 1.55 |  |  |  |
| CCS(=O)(=O)c1c(-c2nc3cc(C(F)(F)F)n(C)c(=O)c3n2C)nn2cc(C3(C#N)CC3)ccc12 [Example I-01] | 2.8 | 100 |  | efficacy (kill in %) (Ctenocephalides felis): 97%; nematicidal efficacy (formation of galls) (Meloidogyne incognita): 100% |
| CCS(=O)(=O)c1c(-c2nc3cc(C(F)(F)F)n(C)c(=O)c3n2C)nn2cc(CC#N)ccc12 [Example I-02] |  | 100 | 100 |  |
| CCS(=O)(=O)c1c(-c2nc3cc(C(F)(F)F)n(C)c(=O)c3n2C)nn2cc(C3CC3)ccc12 [Example I-03] |  | 100 | 100 | efficacy (Myzus persicae [3]): 90%; efficacy (Diabrotica balteata): 100% |
